Compound	melting point [°C]
CCOC(=O)Cc1ccc(Nc2ccnc(Nc3cc(OC)c(OC)c(OC)c3)n2)cc1	143 to 144
CCCNCc1cnc2c(C)c(NC(=O)c3ccc(OC[C@@H]4CCCO4)cc3F)ccc2c1	120 to 121
CC1C(O)CCC2CC3(CCC21)OCCO3 (centres undefined)	56 to 68
CCOC(=O)c1ccc2c(c1)C(c1ccc(O)cc1)(c1ccc(O)cc1)c1ccccc1-2	280
CCOc1nn(C(=O)NS(=O)(=O)c2c(C(=O)N(C)C)csc2C)c(=O)n1C	162
CCCc1nc(CC)c(C(=O)O)n1Cc1ccc(C2(C(=O)O)CC=CC2)s1	157 to 161
CC(C)c1cn2ccccc2c1S(=O)(=O)c1ccc(OCCCN(C)C)cc1	90 to 92
CCCCCCCCCCN(O)C(=O)NCC(=O)OCC	70 to 71
O=C(Nc1ccc2c(c1)OCCO2)c1ccc2cc(Br)ccc2c1	223
CCCCCCOC1CC(C)(C)N(c2nc(N(CCCC)C3CC(C)(C)NC(C)(C)C3)nc(N(CCCC)C3CC(C)(C)NC(C)(C)C3)n2)C(C)(C)C1	135 to 137
O=c1oc2c(Cl)cccc2c(O)c1-c1ccccc1	245
COc1ccc2c(c1)C(=O)C(Oc1cccnc1)CO2 (centres undefined)	116 to 117
O=c1c2cccnc2c(-c2cccc([N+](=O)[O-])c2)nn1-c1ccccc1	167
CC(Oc1ncn(-c2cccc(Br)c2)n1)C(=O)NC1CC1 (centres undefined)	134 to 135
CCCCCCS(=O)c1c(O)cc(C)oc1=O (centres undefined)	59 to 60
O=S(=O)(c1ccccc1)n1ccc2cnccc21	127
O=Cc1ccc2c(c1)C13CC2c2ccccc2C1CN(CC1CCCC1)C3 (centres undefined)	170 to 175
CCN(CC)c1ccc(/C=C/c2cc(/C=C/c3ccc4cc[nH]c4c3)[nH]n2)c(OCc2ccccc2)c1	78.1 to 80
CCC1(C2CCN(c3ncnc4cc(OC)c(OC)cc34)CC2)CO1 (centres undefined)	138 to 139
O=C(/C=C/C=C(c1ccc(C(F)(F)F)cc1)c1ccc(C(F)(F)F)cc1)Nc1cccc2cnccc12	164 to 166
O=c1cc2c(nn1-c1ccc(Cl)cc1)-c1cccnc1CC2	166 to 167
O=S(=O)(/C(=C\c1ccccc1)CO)c1ccccc1	67.5 to 69
CCOC(=O)C(C#N)=CN(C)C1CCCCC1	71 to 72
Cc1cccc(N2Cc3nc(C(=O)O)nn3-c3ccccc32)c1C	195 to 197
COC(=O)CCc1ccc(-n2c(C)cn(-c3ccc(C#N)cc3)c2=O)cc1	168 to 170

Compound	melting point [°C]
Fc1ccc(-c2cc(-c3ccc(F)cc3)nc(Nc3ccc(OC(F)(F)F)cc3)n2)cc1	148 to 150
COC(=O)c1cnc2c(c1)CCCCC2	129 to 131
CCOc1cc2ncc(C#N)c(Nc3ccc4cn[nH]c4c3)c2cc1OCC	143 to 145
CC(C)n1nc(-c2nc(Sc3ccc(F)cc3)c(N)nc2-c2ccccc2)ccc1=O	148 to 150
O=C(NS(=O)(=O)Cl)Oc1c(-c2ccccc2)cccc1-c1ccccc1	159 to 162
CCCc1ccc(S(=O)(=O)Nc2ccc3nc(C)cnc3c2)cc1	136
CC(c1oc2ccccc2c(=O)c1-c1ccccc1)n1nc(-c2cn[nH]c2)c2c(N)ncnc21 (centres undefined)	214 to 217
N=C(N)c1ccc2cc(OC(=O)C3CC3)ccc2c1	214 to 217
O=C(CNS(=O)(=O)c1ccc2ccccc2c1)NCCNC(=O)C1CCN(c2ccncc2)CC1	107 to 109
COc1ccc2c3c1OC1C(O)C(C)(C)C(C)C4C(C2)N(C)CCC314 (centres undefined)	110 to 112
c1ccc(-c2ncnn2-c2ccccc2)cc1	85 to 87
COC[C@@H](NS(=O)(=O)c1ccc2c(Cl)cnc(Cl)c2c1)C(=O)OC(C)(C)C	135 to 137
CCOC(=O)C1=C(C)Nc2ccnc(OC(C)C)c2C1c1cccs1 (centres undefined)	110 to 111
CC(Cn1ncnn1)n1nnc2cc3c(cc2c1=O)OC1COCCN1C3=O (centres undefined)	188 to 190
CC1=C(C)C(=O)C(C(CCCCCC(=O)O)c2cccnc2)=C(C)C1=O (centres undefined)	126 to 127
COc1ccc(S(=O)(=O)C2(CCC/C=C/c3ccc(Cl)cc3)SC(=O)NC2=O)cc1 (centres undefined)	182 to 184
CC(Cl)(Cl)CC(O)(Cn1cncn1)c1ccc(Cl)cc1 (centres undefined)	106
NS(=O)(=O)c1ccc(NC(=O)c2ccc(F)cc2SSc2cc(F)ccc2C(=O)Nc2ccc(S(N)(=O)=O)cc2)cc1	309 to 310
O=[N+]([O-])c1cc(O)cc2cc(-c3ccc(O)cc3)oc12	236 to 237
CC(C)(C)c1ccc(Sc2cc(C(=O)O)ccc2C(=O)O)cc1	325 to 326
CCC(=O)OCc1c(C)cc([N+](=O)[O-])c(NC(CC)CC)c1[N+](=O)[O-]	27 to 29
CCc1cc(OC)c(-c2nc(N)sc2CCC2CCCCC2)cc1OC	88
c1ccc(Pc2ccccc2)cc1	128 to 131
Cc1ccc(S(=O)(=O)OCC2COc3ccc4nc(C)oc4c3O2)cc1 (centres undefined)	123
